Biological target: T1, LymCBP HAT domain (Lymnaea stagnalis, UniProt E2QC33)
T1 construct: HAT (catalytic) domain, R1240 to K1641 of LymCBP, His6-tag, pET28a(+), expressed in E. coli Rosetta-gami 2(DE3); cDNA from Lymnaea CNS; Ni-NTA and cation exchange
Experiment: autoradiography of […]-acetylated histone H1 after SDS-PAGE
Format: biochemical
Settings: pH 8.0, 30 °C, 4 h

[1] = 50 uM inhibitor, calf thymus histone H1, [14C]-acetyl-CoA

T1 sequence (E2QC33 entry or part of it): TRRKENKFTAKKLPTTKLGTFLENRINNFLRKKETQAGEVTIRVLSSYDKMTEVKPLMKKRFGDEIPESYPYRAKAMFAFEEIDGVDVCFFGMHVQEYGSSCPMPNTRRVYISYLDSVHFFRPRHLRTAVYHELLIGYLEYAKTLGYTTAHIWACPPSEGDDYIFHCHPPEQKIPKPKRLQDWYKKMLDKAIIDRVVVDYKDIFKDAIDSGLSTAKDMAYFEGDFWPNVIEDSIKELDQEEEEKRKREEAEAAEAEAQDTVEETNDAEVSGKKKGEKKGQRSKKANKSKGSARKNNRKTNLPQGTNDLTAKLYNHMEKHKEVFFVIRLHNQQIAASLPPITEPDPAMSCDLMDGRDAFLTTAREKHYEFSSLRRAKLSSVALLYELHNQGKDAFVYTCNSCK

SMILES | autoradiography of [14C]-acetylated histone H1 after SDS-PAGE [1] | autoradiography of [14C]-acetylated histone H1 after SDS-PAGE (calf thymus histone H1 as acetyl acceptor, no inhibitor, labelled compound)
COc1cc(/C=C/C(=O)CC(=O)/C=C/c2ccc(O)c(OC)c2)ccc1O [curcumin] | In the presence of HAT inhibitors in the incubation solution, however, H1 acetylation signals were eliminated | 
CCCCCCCCCCCCCCCc1cccc(O)c1C(=O)O [anacardic acid] | In the presence of HAT inhibitors in the incubation solution, however, H1 acetylation signals were eliminated | 
CC(=O)SCCNC(=O)CCNC(=O)[C@H](O)C(C)(C)COP(=O)(O)OP(=O)(O)OC[C@H]1O[C@@H](n2cnc3c(N)ncnc32)[C@H](O)[C@@H]1OP(=O)(O)O [[14C]-acetyl-CoA] |  | in the absence of HAT inhibitors in the incubation solution, LymCBP acetylated histone H1
C=C(C)[C@@H](CC=C(C)C)C[C@@]12C[C@@H](CC=C(C)C)C(C)(C)[C@@](CC=C(C)C)(C(=O)C(=C(O)c3ccc(O)c(O)c3)C1=O)C2=O [garcinol] | In the presence of HAT inhibitors in the incubation solution, however, H1 acetylation signals were eliminated | 

— PMC9828244, “Molecular and functional characterization of an evolutionarily conserved CREB‐binding protein in the Lymnaea CNS” (The FASEB Journal, 2022)
